The record followed here is ChEMBL document CHEMBL1201862, “PubChem BioAssay data set” (2004).

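Cultured in 96-well plates, cells were exposed to test compound for 48 hours across five concentrations. Here, GI50 denotes the concentration required for 50% inhibition of growth.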 Active and inactive are the calls of the source. Rule as the data show it: active = GI50 up to about 1.1 µM and inactive = higher.

Some test systems named below: LOX IMVI; A498; M14; MDA-MB-231; BT-549; SK-MEL-2; SK-MEL-5; DU-145; UO-31; RXF 393; SK-MEL-28; HOP-62; MDA-MB-435; SF-295; CCRF-CEM; ACHN; OVCAR-4; SK-OV-3; T47D.
Common to all, as to assay: NCI tumour cell line growth inhibition, 48 h

With `ClC1=NSSC1(Cl)Cl`, the GI50 with LOX IMVI is 40.8 µM (inactive); in the assay with A498, > 100 µM (inactive); with M14, 19.8 µM (inactive); in the assay with MDA-MB-231 it was 30.8 µM (inactive); in the assay on BT-549, 41.6 µM (inactive); with SK-MEL-2, > 100 µM (inactive). Moreover, the GI50 in the assay with SK-MEL-5 is 14.1 µM (inactive); in the assay with DU-145, > 100 µM (inactive); with UO-31 it was 26.7 µM (inactive); in the assay with RXF 393, 46.1 µM (inactive); in the assay with SK-MEL-28 it was > 10 µM (inactive); with HOP-62, > 100 µM (inactive). Moreover, the GI50 was 41.8 µM (inactive) in the assay on MDA-MB-435; 61.5 µM (inactive) with SF-295; 6.47 µM (inactive) in the assay on CCRF-CEM; 20.4 µM (inactive) in the assay on ACHN; 44.2 µM (inactive) in the assay with OVCAR-4.
In the case of `Clc1ccc(-c2cc(-c3cc4cc(Br)ccc4nc3Cl)on2)cc1`, the GI50 in the assay on LOX IMVI was 10 µM (inactive); in the assay with A498, 11.7 µM (inactive); in the assay on M14, 12.5 µM (inactive); in the assay on BT-549 it was 20.2 µM (inactive); in the assay on SK-MEL-2, 9.71 µM (inactive); with SK-MEL-5, 9.12 µM (inactive). Besides, the GI50 with DU-145 is 18.8 µM (inactive); in the assay with UO-31 it was 17.3 µM (inactive); with RXF 393, 15.4 µM (inactive); in the assay with SK-MEL-28 it was 9.62 µM (inactive); in the assay on SK-OV-3 it was 18.9 µM (inactive); in the assay with HOP-62 it was 6 µM (inactive). Besides, the GI50 was 15 µM (inactive) in the assay on T47D; 11 µM (inactive) with MDA-MB-435; 11.3 µM (inactive) with SF-295; 11.5 µM (inactive) in the assay with CCRF-CEM; 13.8 µM (inactive) with ACHN; 16.2 µM (inactive) in the assay with OVCAR-4.
As for `CCOc1nc(-c2ccccc2)cc(-c2ccc(N3CCOCC3)cc2)c1C#N`, the GI50 in the assay on LOX IMVI, in the assay with A498, in the assay with M14, with MDA-MB-231, in the assay on BT-549 and in the assay with SK-MEL-2 was > 100 µM (inactive) throughout. For the same molecule, the GI50 is 42.5 µM (inactive) in the assay on SK-MEL-5; > 100 µM (inactive) with DU-145; > 100 µM (inactive) in the assay with UO-31; > 100 µM (inactive) in the assay on RXF 393; > 100 µM (inactive) with SK-MEL-28; > 100 µM (inactive) with HOP-62. Also, the GI50 is > 100 µM (inactive) in the assay on MDA-MB-435; 7.35 µM (inactive) in the assay on SF-295; > 100 µM (inactive) with CCRF-CEM; > 100 µM (inactive) in the assay with ACHN; > 100 µM (inactive) in the assay with OVCAR-4.
`O=Cc1cn(CCCCCCCCCCCCn2cc(C=O)c3ccccc32)c2ccccc12`: the GI50 was > 100 µM (inactive) in the assay with LOX IMVI; 61 µM (inactive) in the assay with A498; > 100 µM (inactive) in the assay with M14; > 100 µM (inactive) in the assay on MDA-MB-231; > 100 µM (inactive) in the assay on BT-549; > 100 µM (inactive) with SK-MEL-2. The GI50 with SK-MEL-5 was 0.611 µM (active); in the assay with DU-145 it was > 100 µM (inactive); in the assay with UO-31, > 100 µM (inactive); in the assay with RXF 393 it was > 100 µM (inactive); in the assay with SK-MEL-28, > 100 µM (inactive); with SK-OV-3 it was > 100 µM (inactive). Further, the GI50 in the assay on HOP-62 was > 100 µM (inactive); with MDA-MB-435, 5.22 µM (inactive); in the assay with SF-295, 3.56 µM (inactive); in the assay on CCRF-CEM, > 10 µM (inactive); in the assay on ACHN, 4.88 µM (inactive).
